Paper PMC4823954, “From fighting depression to conquering tumors: a novel tricyclic thiazepine compound as a tubulin polymerization inhibitor” (Cell Death & Disease, 2016)

Key:
Test in all cases: KINOMEscan
Type in all cases: binding
Details in all cases: read-out: % Ctrl
[1] = target: T1, ABL1(M351T)-phosphorylated (Homo sapiens, UniProt P00519, M351T)
T1 construct: purchased DiscoveRx KINOMEscan

[2] = target: T2, ABL1(Q252H)-nonphosphorylated (Homo sapiens, UniProt P00519, Q252H)
T2 construct: purchased DiscoveRx KINOMEscan

BMPR1A = target: T3, BMPR1A (Homo sapiens, UniProt P36894)
T3 construct: purchased DiscoveRx KINOMEscan
In short: (§1)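 Competition binding panel of 442 non-mutant kinases: test compound at 5 and 10 μM competed with an active-site-directed ligand for 1 h with shaking. Bound kinase was eluted with 0.5 μM ligand and quantified by qPCR; %Ctrl = (compound − positive control)/(DMSO − positive control) × 100, lower meaning tighter binding.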

CSF1R = target: T4, CSF1R (Homo sapiens, UniProt P07333)
T4 construct: purchased DiscoveRx KINOMEscan
In short: as §1

EGFR(S752-I759del) = target: T5, EGFR(S752-I759del) (Homo sapiens, UniProt P00533, DEL752-759)
T5 construct: purchased DiscoveRx KINOMEscan

EPHA1 = target: T6, EPHA1 (Homo sapiens, UniProt P21709)
T6 construct: purchased DiscoveRx KINOMEscan
In short: as §1

ERK2 = target: T7, ERK2 (Homo sapiens, UniProt P28482)
T7 construct: purchased DiscoveRx KINOMEscan
In short: as §1

ERN1 = target: T8, ERN1 (Homo sapiens, UniProt O75460)
T8 construct: purchased DiscoveRx KINOMEscan
T8 sequence (O75460 19-977): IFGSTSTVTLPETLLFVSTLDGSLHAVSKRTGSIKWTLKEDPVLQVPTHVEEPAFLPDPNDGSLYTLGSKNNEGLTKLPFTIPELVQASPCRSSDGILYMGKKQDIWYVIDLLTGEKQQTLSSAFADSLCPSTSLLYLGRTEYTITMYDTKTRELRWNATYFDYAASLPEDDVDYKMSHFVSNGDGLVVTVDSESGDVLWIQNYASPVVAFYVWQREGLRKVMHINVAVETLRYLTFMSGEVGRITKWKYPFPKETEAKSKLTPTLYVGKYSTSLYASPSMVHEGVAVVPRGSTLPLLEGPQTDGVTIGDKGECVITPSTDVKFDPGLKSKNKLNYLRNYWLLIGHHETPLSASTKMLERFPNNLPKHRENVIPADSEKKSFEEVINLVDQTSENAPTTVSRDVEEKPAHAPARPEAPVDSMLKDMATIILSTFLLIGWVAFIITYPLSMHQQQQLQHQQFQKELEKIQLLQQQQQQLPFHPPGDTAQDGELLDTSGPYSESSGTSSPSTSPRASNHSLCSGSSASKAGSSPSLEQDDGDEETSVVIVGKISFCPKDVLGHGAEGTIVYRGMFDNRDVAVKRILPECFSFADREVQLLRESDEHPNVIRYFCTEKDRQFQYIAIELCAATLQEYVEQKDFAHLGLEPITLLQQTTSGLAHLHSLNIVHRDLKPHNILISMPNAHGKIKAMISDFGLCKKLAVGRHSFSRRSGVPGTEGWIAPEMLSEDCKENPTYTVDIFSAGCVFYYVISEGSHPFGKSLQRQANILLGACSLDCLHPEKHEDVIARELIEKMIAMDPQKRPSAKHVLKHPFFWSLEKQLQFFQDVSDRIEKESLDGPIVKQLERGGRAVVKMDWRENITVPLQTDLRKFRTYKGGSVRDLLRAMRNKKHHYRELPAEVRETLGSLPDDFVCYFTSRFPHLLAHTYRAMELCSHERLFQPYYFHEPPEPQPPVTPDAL
In short: as §1

FYN = target: T9, FYN (Homo sapiens, UniProt P06241)
T9 construct: purchased DiscoveRx KINOMEscan
T9 sequence (P06241 whole entry): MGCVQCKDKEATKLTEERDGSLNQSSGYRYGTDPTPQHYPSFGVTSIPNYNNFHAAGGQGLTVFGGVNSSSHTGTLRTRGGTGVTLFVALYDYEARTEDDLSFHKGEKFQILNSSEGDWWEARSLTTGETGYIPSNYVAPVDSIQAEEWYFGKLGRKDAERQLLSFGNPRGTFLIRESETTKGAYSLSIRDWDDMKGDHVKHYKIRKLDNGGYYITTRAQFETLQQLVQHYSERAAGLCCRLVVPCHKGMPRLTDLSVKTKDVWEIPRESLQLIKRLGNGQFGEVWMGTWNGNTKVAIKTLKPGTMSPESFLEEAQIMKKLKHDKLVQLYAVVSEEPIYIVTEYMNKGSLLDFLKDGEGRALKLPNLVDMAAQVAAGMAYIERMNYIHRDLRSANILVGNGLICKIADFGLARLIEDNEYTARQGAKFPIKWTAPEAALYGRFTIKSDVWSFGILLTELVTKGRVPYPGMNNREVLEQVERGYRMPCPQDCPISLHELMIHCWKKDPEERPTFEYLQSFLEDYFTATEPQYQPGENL
In short: as §1

LOK = target: T10, LOK (Homo sapiens, UniProt O94804)
T10 construct: purchased DiscoveRx KINOMEscan
In short: as §1

MARK3 = target: T11, MARK3 (Homo sapiens, UniProt P27448)
T11 construct: purchased DiscoveRx KINOMEscan
In short: as §1

MEK4 = target: T12, MEK4 (Homo sapiens, UniProt P45985)
T12 construct: purchased DiscoveRx KINOMEscan
In short: as §1

MST2 = target: T13, MST2 (Homo sapiens, UniProt Q13188)
T13 construct: purchased DiscoveRx KINOMEscan
T13 sequence (Q13188 whole entry): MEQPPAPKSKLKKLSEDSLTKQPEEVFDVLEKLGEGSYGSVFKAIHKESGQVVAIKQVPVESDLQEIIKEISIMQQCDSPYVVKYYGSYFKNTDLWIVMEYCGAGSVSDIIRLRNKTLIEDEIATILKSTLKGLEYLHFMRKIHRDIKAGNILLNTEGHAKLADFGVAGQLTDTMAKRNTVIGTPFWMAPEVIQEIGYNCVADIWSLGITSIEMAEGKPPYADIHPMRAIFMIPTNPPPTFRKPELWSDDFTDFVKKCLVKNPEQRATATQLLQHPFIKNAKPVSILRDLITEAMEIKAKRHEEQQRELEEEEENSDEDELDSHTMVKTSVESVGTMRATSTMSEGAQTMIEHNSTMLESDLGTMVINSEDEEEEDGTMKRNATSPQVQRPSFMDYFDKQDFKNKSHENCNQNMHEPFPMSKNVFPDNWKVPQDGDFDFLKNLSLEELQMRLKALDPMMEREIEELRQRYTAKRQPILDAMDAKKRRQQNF
In short: as §1

NEK6 = target: T14, NEK6 (Homo sapiens, UniProt Q9HC98)
T14 construct: purchased DiscoveRx KINOMEscan
T14 sequence (Q9HC98 whole entry): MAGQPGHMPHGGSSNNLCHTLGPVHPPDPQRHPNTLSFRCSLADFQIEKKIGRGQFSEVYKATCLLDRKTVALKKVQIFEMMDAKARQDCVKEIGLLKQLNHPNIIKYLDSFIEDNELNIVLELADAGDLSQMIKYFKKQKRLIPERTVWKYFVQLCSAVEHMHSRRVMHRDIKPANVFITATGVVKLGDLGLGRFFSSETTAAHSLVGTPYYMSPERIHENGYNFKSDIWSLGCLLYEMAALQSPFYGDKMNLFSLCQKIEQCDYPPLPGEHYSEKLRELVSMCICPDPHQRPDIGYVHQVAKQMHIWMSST
In short: as §1

PAK4 = target: T15, PAK4 (Homo sapiens, UniProt O96013)
T15 construct: purchased DiscoveRx KINOMEscan
In short: as §1

PCTK2 = target: T16, PCTK2 (Homo sapiens, UniProt Q00537)
T16 construct: purchased DiscoveRx KINOMEscan
In short: as §1

PIK3C2G = target: T17, PIK3C2G (Homo sapiens, UniProt O75747)
T17 construct: purchased DiscoveRx KINOMEscan
In short: as §1

PIK3CA(C420R) = target: T18, PIK3CA(C420R) (Homo sapiens, UniProt P42336, C420R)
T18 construct: purchased DiscoveRx KINOMEscan
T18 sequence (P42336 whole entry C420R): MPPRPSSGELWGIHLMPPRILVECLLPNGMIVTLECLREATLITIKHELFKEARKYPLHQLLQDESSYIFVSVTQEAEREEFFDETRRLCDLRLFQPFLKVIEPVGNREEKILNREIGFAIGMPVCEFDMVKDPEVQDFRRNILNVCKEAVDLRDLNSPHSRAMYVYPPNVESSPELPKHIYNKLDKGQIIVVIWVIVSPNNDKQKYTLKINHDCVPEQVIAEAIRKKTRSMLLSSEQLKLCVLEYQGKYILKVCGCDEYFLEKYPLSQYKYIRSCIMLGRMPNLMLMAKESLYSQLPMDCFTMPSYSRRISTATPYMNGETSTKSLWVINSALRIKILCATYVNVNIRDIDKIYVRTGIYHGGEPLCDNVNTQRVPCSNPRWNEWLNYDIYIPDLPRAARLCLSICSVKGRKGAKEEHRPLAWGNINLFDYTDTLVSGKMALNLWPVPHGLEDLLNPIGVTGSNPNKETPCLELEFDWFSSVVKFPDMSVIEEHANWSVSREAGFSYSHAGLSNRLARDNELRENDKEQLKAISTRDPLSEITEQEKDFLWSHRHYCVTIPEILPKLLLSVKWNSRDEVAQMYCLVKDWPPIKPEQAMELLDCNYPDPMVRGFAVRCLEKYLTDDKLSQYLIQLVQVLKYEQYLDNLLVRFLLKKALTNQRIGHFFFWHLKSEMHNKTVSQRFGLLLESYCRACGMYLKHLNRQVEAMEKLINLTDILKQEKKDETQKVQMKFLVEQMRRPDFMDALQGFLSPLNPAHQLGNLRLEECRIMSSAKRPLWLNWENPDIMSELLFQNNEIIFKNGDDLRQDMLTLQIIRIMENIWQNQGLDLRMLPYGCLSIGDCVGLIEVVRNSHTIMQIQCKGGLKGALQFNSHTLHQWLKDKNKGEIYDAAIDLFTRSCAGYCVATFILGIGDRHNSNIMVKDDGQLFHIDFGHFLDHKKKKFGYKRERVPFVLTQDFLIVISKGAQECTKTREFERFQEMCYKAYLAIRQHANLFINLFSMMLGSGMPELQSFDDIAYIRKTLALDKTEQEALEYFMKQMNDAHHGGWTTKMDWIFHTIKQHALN

PIK3CA(M1043I) = target: T19, PIK3CA(M1043I) (Homo sapiens, UniProt P42336, M1043I)
T19 construct: purchased DiscoveRx KINOMEscan
T19 sequence (P42336 whole entry M1043I): as the sequence (P42336 whole entry C420R) above, with R420C, M1043I counted along it

PKAC-alpha = target: T20, PKAC-alpha (Homo sapiens, UniProt P17612)
T20 construct: purchased DiscoveRx KINOMEscan
In short: as §1

PLK2 = target: T21, PLK2 (Homo sapiens, UniProt Q9NYY3)
T21 construct: purchased DiscoveRx KINOMEscan
In short: as §1

PRP4 = target: T22, PRP4 (Homo sapiens, UniProt Q13523)
T22 construct: purchased DiscoveRx KINOMEscan
In short: as §1

QSK = target: T23, QSK (Homo sapiens, UniProt Q9Y2K2)
T23 construct: purchased DiscoveRx KINOMEscan
In short: as §1

RIOK1 = target: T24, RIOK1 (Homo sapiens, UniProt Q9BRS2)
T24 construct: purchased DiscoveRx KINOMEscan
T24 sequence (Q9BRS2 whole entry): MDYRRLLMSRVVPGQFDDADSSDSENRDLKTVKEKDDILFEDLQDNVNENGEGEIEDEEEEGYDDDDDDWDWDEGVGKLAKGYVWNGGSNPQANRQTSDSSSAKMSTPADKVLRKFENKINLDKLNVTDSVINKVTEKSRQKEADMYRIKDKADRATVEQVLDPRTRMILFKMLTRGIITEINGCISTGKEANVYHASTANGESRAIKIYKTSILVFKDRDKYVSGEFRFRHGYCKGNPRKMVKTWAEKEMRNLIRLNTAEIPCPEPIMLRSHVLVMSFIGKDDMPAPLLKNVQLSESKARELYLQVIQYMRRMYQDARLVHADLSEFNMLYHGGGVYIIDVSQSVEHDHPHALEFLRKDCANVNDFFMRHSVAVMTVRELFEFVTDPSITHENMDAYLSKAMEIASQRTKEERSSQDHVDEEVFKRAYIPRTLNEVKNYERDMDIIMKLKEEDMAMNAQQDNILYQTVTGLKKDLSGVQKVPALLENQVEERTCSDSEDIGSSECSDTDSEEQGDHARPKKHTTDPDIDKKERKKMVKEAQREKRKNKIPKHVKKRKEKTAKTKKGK
In short: as §1

ROCK1 = target: T25, ROCK1 (Homo sapiens, UniProt Q13464)
T25 construct: purchased DiscoveRx KINOMEscan
In short: as §1

SRPK1 = target: T26, SRPK1 (Homo sapiens, UniProt Q96SB4)
T26 construct: purchased DiscoveRx KINOMEscan
T26 sequence (Q96SB4 whole entry): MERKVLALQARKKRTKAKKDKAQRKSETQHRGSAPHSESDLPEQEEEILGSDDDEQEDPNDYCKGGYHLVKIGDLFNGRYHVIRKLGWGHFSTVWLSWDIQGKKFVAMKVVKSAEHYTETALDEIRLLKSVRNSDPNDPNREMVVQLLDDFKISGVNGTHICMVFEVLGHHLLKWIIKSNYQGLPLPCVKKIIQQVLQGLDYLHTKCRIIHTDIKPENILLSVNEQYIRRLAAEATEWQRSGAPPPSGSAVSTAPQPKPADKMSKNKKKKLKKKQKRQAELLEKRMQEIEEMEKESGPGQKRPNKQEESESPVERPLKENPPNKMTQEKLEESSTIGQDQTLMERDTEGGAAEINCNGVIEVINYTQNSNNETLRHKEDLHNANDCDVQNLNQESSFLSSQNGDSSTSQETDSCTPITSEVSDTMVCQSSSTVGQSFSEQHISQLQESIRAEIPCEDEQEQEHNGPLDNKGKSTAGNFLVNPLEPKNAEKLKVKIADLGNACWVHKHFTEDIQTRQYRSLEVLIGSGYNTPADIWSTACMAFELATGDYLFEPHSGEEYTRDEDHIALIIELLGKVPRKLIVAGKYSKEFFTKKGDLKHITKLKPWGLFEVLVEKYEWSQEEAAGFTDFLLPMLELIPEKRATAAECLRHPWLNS
In short: as §1

TLK1 = target: T27, TLK1 (Homo sapiens, UniProt Q9UKI8)
T27 construct: purchased DiscoveRx KINOMEscan
In short: as §1

TNK2 = target: T28, TNK2 (Homo sapiens, UniProt Q07912)
T28 construct: purchased DiscoveRx KINOMEscan
In short: as §1

TRKA = target: T29, TRKA (Homo sapiens, UniProt P04629)
T29 construct: purchased DiscoveRx KINOMEscan
In short: as §1

p38-delta = target: T30, p38-delta (Homo sapiens, UniProt O15264)
T30 construct: purchased DiscoveRx KINOMEscan
T30 sequence (O15264 whole entry): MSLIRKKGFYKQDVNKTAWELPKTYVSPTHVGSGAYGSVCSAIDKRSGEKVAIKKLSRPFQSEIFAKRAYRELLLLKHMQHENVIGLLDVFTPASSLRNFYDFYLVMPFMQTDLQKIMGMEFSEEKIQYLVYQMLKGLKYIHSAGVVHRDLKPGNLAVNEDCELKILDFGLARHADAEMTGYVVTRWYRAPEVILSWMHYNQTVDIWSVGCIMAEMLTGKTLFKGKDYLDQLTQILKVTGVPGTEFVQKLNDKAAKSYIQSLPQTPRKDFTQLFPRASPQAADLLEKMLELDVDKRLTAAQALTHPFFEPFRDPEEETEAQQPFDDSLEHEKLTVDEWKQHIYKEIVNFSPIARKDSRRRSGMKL
In short: as §1

Cc1ccc(C2=Nc3cccnc3S(=O)(=O)c3ccccc32)cc1 [TBPT, 6-(p-tolyl)benzo[f] pyrido[2,3-b][1,4] thiazepine 11,11-dioxide]
remaining binding at 5 µM ([1]; 5 μM): 81% | remaining binding at 10 µM ([1]; 10 μM): 100% | remaining binding at 5 µM ([2]; 5 μM): 79% | remaining binding at 10 µM ([2]; 10 μM): 100% | remaining binding at 5 µM (BMPR1A; 5 μM): 97% | remaining binding at 10 µM (BMPR1A; 10 μM): 80% | remaining binding at 5 µM (CSF1R; 5 μM): 93% | remaining binding at 10 µM (CSF1R; 10 μM): 100% | remaining binding at 5 µM (EGFR(S752-I759del); 5 μM): 79% | remaining binding at 10 µM (EGFR(S752-I759del); 10 μM): 100% | remaining binding at 5 µM (EPHA1; 5 μM): 100% | remaining binding at 10 µM (EPHA1; 10 μM): 94% | remaining binding at 5 µM (ERK2; 5 μM): 76% | remaining binding at 10 µM (ERK2; 10 μM): 92% | remaining binding at 5 µM (ERN1; 5 μM): 92% | remaining binding at 10 µM (ERN1; 10 μM): 100% | remaining binding at 5 µM (FYN; 5 μM): 85% | remaining binding at 10 µM (FYN; 10 μM): 95% | remaining binding at 5 µM (LOK; 5 μM): 100% | remaining binding at 10 µM (LOK; 10 μM): 92% | remaining binding at 5 µM (MARK3; 5 μM): 96% | remaining binding at 10 µM (MARK3; 10 μM): 87% | remaining binding at 5 µM (MEK4; 5 μM): 82% | remaining binding at 10 µM (MEK4; 10 μM): 100% | remaining binding at 5 µM (MST2; 5 μM): 63% | remaining binding at 10 µM (MST2; 10 μM): 100% | remaining binding at 5 µM (NEK6; 5 μM): 96% | remaining binding at 10 µM (NEK6; 10 μM): 95% | remaining binding at 5 µM (PAK4; 5 μM): 100% | remaining binding at 10 µM (PAK4; 10 μM): 100% | remaining binding at 5 µM (PCTK2; 5 μM): 100% | remaining binding at 10 µM (PCTK2; 10 μM): 89% | remaining binding at 5 µM (PIK3C2G; 5 μM): 100% | remaining binding at 10 µM (PIK3C2G; 10 μM): 100% | remaining binding at 5 µM (PIK3CA(C420R); 5 μM): 100% | remaining binding at 10 µM (PIK3CA(C420R); 10 μM): 100% | remaining binding at 5 µM (PIK3CA(M1043I); 5 μM): 100% | remaining binding at 10 µM (PIK3CA(M1043I); 10 μM): 100% | remaining binding at 5 µM (PKAC-alpha; 5 μM): 93% | remaining binding at 10 µM (PKAC-alpha; 10 μM): 100% | remaining binding at 5 µM (PLK2; 5 μM): 100% | remaining binding at 10 µM (PLK2; 10 μM): 83% | remaining binding at 5 µM (PRP4; 5 μM): 99% | remaining binding at 10 µM (PRP4; 10 μM): 100% | remaining binding at 5 µM (QSK; 5 μM): 76% | remaining binding at 10 µM (QSK; 10 μM): 100% | remaining binding at 5 µM (RIOK1; 5 μM): 83% | remaining binding at 10 µM (RIOK1; 10 μM): 76% | remaining binding at 5 µM (ROCK1; 5 μM): 84% | remaining binding at 10 µM (ROCK1; 10 μM): 100% | remaining binding at 5 µM (SRPK1; 5 μM): 88% | remaining binding at 10 µM (SRPK1; 10 μM): 67% | remaining binding at 5 µM (TLK1; 5 μM): 93% | remaining binding at 10 µM (TLK1; 10 μM): 97% | remaining binding at 5 µM (TNK2; 5 μM): 100% | remaining binding at 10 µM (TNK2; 10 μM): 100% | remaining binding at 5 µM (TRKA; 5 μM): 100% | remaining binding at 10 µM (TRKA; 10 μM): 97% | remaining binding at 5 µM (p38-delta; 5 μM): 75% | remaining binding at 10 µM (p38-delta; 10 μM): 65%
